Data set [1] can be described thus: Solubility in water. The class given is physicochemical. As for the experimental part:
The water solubility of the compound of the present invention was measured at 25° C. As the control compounds, (E)-4-(2-(2-(N-(4-methoxybenzenesulfonyl)amino)-phenyl)ethenyl)pyridine 1-oxide (Compound A) and (E)-4-(2-(2-(N-acetyl-N-(4-methoxy-benzenesulfonyl)amino)phenyl)ethenyl)pyridine 1-oxide (Compound B) were used.

Data set [2] has as its system Colon-26 (Mouse Colon Cancer) Cells. In words: Anticancer activity against Colon-26 cells transplanted in mice. The class given is in vivo. The following applies: day 21; for Tumor growth inhibition rate (%): 5 times at intervals of 4 days; for Number of Survival: 6 animals/group. As for the experimental part:
Anticancer Activity Against Colon-26 (Mouse Colon Cancer) Cells Transplanted in Mice
Colon-26 cells cultured in vitro were transplanted subcutaneously with an injection syringe in the right axillary region of Balb/c 5-week-old male mice (5×10^5 cells/animal). The mice were divided into groups of 6 animals/group when the tumor volume had reached about 120 mm^3 (Experiment 1) or about 100 mm^3 (Experiment 2). The test drug dissolved in 5% glucose solution was administered intravenously 5 times in total once daily at intervals of 4 days. The mice of control group were treated in the same manner with 5% glucose solution. The tumor volume was calculated according to the Equation 1 below on the basis of the major and minor axes of the tumor measured at a given interval with vernier calipers. [formula]
The growth rate was then calculated according to the Equation 2 based on the tumor volume, which was then applied to the Equation 3 for the calculation of the growth inhibition rate in drug-treatment group relative to the control group. [formula]
The tumor growth inhibition rate and the number of survivals at day 21 after initiation of the administration are shown in Table 1.

Setting [3] is: Experiment 1 (tumor about 120 mm^3 at start), 50 mg/kg i.v.
Setting [4] is: Experiment 1, dose not printed (second dose line of Example 5), i.v.
The mark [5] stands for this setting: Experiment 1 (tumor about 120 mm^3 at start), 75 mg/kg i.v.
Setting [6] is: Experiment 2 (tumor about 100 mm^3 at start), 50 mg/kg i.v.
Where [7] appears, read: Experiment 2 (tumor about 100 mm^3 at start), 75 mg/kg i.v.

≈ marks a conversion by molar mass, not a printed value. Like-named read-outs stand apart in the source and are kept apart here.

Regarding `COc1ccc(S(=O)(=O)N(C(=O)CN)c2ccccc2/C=C/c2cc[n+]([O-])cc2)cc1.Cl`, the melting point (commonly the temperature, or range, at which the solid turns liquid) lay within 235 to 237 °C.
With `COc1ccc(S(=O)(=O)N(C(=O)CN2CCN(c3cccnc3)CC2)c2ccccc2/C=C/c2cc[n+]([O-])cc2)cc1.Cl.Cl`, the melting point is 167 °C (dec.).
For `COc1ccc(S(=O)(=O)N(C(=O)c2ccncc2)c2ccccc2/C=C/c2cc[n+]([O-])cc2)cc1.Cl.Cl`, the melting point was in the range of 198 to 200 °C.
The same measure, in the same setting: under `COc1ccc(S(=O)(=O)N(C(=O)c2cccnc2)c2ccccc2/C=C/c2cc[n+]([O-])cc2)cc1.Cl.Cl` stands 187 to 189 °C.
In the case of `COc1ccc(S(=O)(=O)Nc2ccccc2/C=C/c2cc[n+]([O-])cc2)cc1` [Compound A, (E)-4-(2-(2-(N-(4-methoxybenzenesulfonyl)amino)-phenyl)ethenyl)pyridine 1-oxide], the solubility (as a rule, how much of the substance goes into solution per volume) in data set [1] (25 °C) was found to be 29 µg/mL (≈ 75.8 µM).
Take `COc1ccc(S(=O)(=O)N(C(C)=O)c2ccccc2/C=C/c2cc[n+]([O-])cc2)cc1` [Compound B, (E)-4-(2-(2-(N-acetyl-N-(4-methoxy-benzenesulfonyl)amino)phenyl)ethenyl)pyridine 1-oxide]: the solubility in data set [1] (25° C., control compounds, read-out: water solubility) is 18 µg/mL (≈ 42.4 µM).
For `COc1ccc(S(=O)(=O)N(C(=O)CN2CCCCC2)c2ccccc2/C=C/c2cc[n+]([O-])cc2)cc1.Cl` [Example 5, (E)-4-(2-(2-(N-(4-Methoxybenzenesulfonyl)-N-piperidinoacetyl-amino)phenyl)ethenyl)pyridine 1-oxide hydrochloride], the “Tumor growth inhibition rate (%)” value in data set [2] (setting [3]) is recorded as 78.0%; in data set [2] (setting [4]), 87.7%. For the same compound, the “Number of Survival” value was 6/6 in data set [2] (Experiment 1, 50 mg/kg i.v.) and 6/6 in data set [2] (setting [4]).
Take `COc1ccc(S(=O)(=O)N(C(=O)CN(C)C)c2ccccc2/C=C/c2cc[n+]([O-])cc2)cc1.Cl` [Example 8, (E)-4-(2-(2-(N-(N,N-Dimethylglycyl)-N-(4-methoxybenzenesulfonyl) -amino)phenyl)ethenyl)pyridine 1-oxide hydrochloride]: the “Tumor growth inhibition rate (%)” value is 87.0% in data set [2] (setting [3]) and 95.9% in data set [2] (setting [5]). For the same compound, the “Number of Survival” value in data set [2] (Experiment 1, 50 mg/kg i.v.) is reported as 5/6; in data set [2] (Experiment 1, 75 mg/kg i.v.) it was 5/6.
Take `COc1ccc(S(=O)(=O)N(C(=O)CN2CCN(c3ccccn3)CC2)c2ccccc2/C=C/c2cc[n+]([O-])cc2)cc1.Cl.Cl` [Example 9, (E)-4-(2-(2-(N-(4-Methoxybenzenesulfonyl)-N-(4-(2-pyridyl)piperazino)acetylamino)phenyl)ethenyl)pyridine 1-oxide dihydrochloride]: the results for the “Tumor growth inhibition rate (%)” value in data set [2] (setting [3]) and in data set [2] (setting [5]) were 80.8% and 93.6%, respectively. Besides, the “Number of Survival” value is 6/6 in data set [2] (Experiment 1, 50 mg/kg i.v.) and 5/6 in data set [2] (Experiment 1, 75 mg/kg i.v.).
With `COc1ccc(S(=O)(=O)N(C(=O)CN2CCOCC2)c2ccccc2/C=C/c2cc[n+]([O-])cc2)cc1.Cl` [Example 13, (E) -4-(2-(2-(N-(4-Methoxybenzenesulfonyl)-N-morpholinoacetyl-amino)phenyl)ethenyl)pyridine 1-oxide hydrochloride], the “Tumor growth inhibition rate (%)” value in data set [2] (setting [6]) is 73.8%; in data set [2] (setting [7]), 92.6%. For the same compound, the “Number of Survival” value in data set [2] (Experiment 2, 50 mg/kg i.v.) is on record as 6/6; in data set [2] (Experiment 2, 75 mg/kg i.v.), 6/6.
For the compound `COc1ccc(S(=O)(=O)N(C(=O)CN2CCCC2)c2ccccc2/C=C/c2cc[n+]([O-])cc2)cc1.Cl` [Example 14, (E)-4-(2-(2-(N-(4-Methoxybenzenesulfonyl)-N-pyrrolidinoacetylamino) -phenyl)ethenyl)pyridine 1-oxide hydrochloride], the “Tumor growth inhibition rate (%)” value in data set [2] (setting [6]) was 78.6%; in data set [2] (setting [7]), 84.1%. Also, the “Number of Survival” value in data set [2] (Experiment 2, 50 mg/kg i.v.) is 6/6; in data set [2] (Experiment 2, 75 mg/kg i.v.), 6/6.
